# Measured values taken from article PMC9105976, “A Novel β-Hairpin Peptide Z-d14CFR Enhances Multidrug-Resistant Bacterial Clearance in a Murine Model of Mastitis” (International Journal of Molecular Sciences, 2022).
# Read-outs that look alike come from different tables or passages of the source. Positions of bridges follow the written chain, without caps; N, C: chain ends. Residues, ends and D or L forms follow the SMILES beside them.
# What was measured:
# [1] = system: Bacillus cereus CAU 202020; experiment: MIC/MBC, microdilution broth method; format: cell-based; conditions: for MIC: Bacillus cereus, CAU202020, 18 h, read-out: MIC; for MBC: CAU202020, Bacillus cereus CAU 202020 (MDR isolate), kills 99.9% bacteria, NA = no activity at 1 mg/mL, read-out: MBC
# Description: (§1) The MIC of peptides against bacteria was carried out by the microdilution broth method. The bacterial culture (OD 600 = 0.6) was diluted in 10 mM PBS to 1 × 10^6 CFU/mL. The bacterial suspension (100 μL) was added to 96-well plates, and the same volume of peptides, ampicillin or gentamicin (concentrations ranging from 0.001 to 2 mg/mL) were then added to the same 96-well plates, respectively.
# [2] = system: Escherichia coli ATCC25922; experiment: MIC/MBC, microdilution broth method; format: cell-based; conditions: for MBC: Escherichia coli ATCC25922, minimum concentration which kills 99.9% bacteria, NA = no activity at 1 mg/mL, read-out: MBC; for MIC: Escherichia coli, ATCC25922, 18 h, read-out: MIC
# Description: as §1
# [3] = system: Escherichia coli CAU 201919; experiment: MIC/MBC, microdilution broth method; format: cell-based; conditions: for MBC: CAU201919, Escherichia coli CAU 201919 (MDR isolate), kills 99.9% bacteria, NA = no activity at 1 mg/mL, read-out: MBC; for MIC: Escherichia coli, CAU201919, 18 h, read-out: MIC
# Description: as §1
# [4] = system: Escherichia coli CAU 201920; experiment: MIC/MBC, microdilution broth method; format: cell-based; conditions: for MBC: CAU201920, Escherichia coli CAU 201920 (MDR isolate), kills 99.9% bacteria, NA = no activity at 1 mg/mL, read-out: MBC; for MIC: Escherichia coli, CAU201920, 18 h, read-out: MIC
# Description: as §1
# [5] = system: Escherichia coli CVCC1450; experiment: MIC/MBC, microdilution broth method; format: cell-based; conditions: for MBC: Escherichia coli CVCC1450, minimum concentration which kills 99.9% bacteria, NA = no activity at 1 mg/mL, read-out: MBC; for MIC: Escherichia coli, CVCC1450, 18 h, read-out: MIC
# Description: as §1
# [6] = system: Klebsiella pneumoniae CAU202084; experiment: MIC/MBC, microdilution broth method; format: cell-based; conditions: for MBC: kills 99.9% bacteria, NA = no activity at 1 mg/mL
# Description: as §1
# [7] = system: Proteus vulgaris CVCC1971; experiment: MIC/MBC, microdilution broth method; format: cell-based; conditions: for MBC: kills 99.9% bacteria, NA = no activity at 1 mg/mL
# Description: as §1
# [8] = system: Salmonella typhimurium ATCC14028; experiment: MIC/MBC, microdilution broth method; format: cell-based; conditions: Salmonella enterica; for MIC: 18 h, read-out: MIC; for MBC: Salmonella typhimurium ATCC14028, kills 99.9% bacteria, NA = no activity at 1 mg/mL, read-out: MBC
# Description: as §1
# [9] = system: Staphylococcus aureus ATCC29213; experiment: MIC/MBC, microdilution broth method; format: cell-based; conditions: for MBC: Staphylococcus aureus ATCC29213, kills 99.9% bacteria, NA = no activity at 1 mg/mL, read-out: MBC; for MIC: Staphylococcus aureus, ATCC29213, 18 h, read-out: MIC
# Description: as §1
# [10] = system: Staphylococcus haemolyticus CAU202078; experiment: MIC/MBC, microdilution broth method; format: cell-based; conditions: for MBC: Staphylococcus haemolyticus CAU202078 (MDR isolate), kills 99.9% bacteria, NA = no activity at 1 mg/mL, read-out: MBC; for MIC: Staphylococcus haemolyticus, CAU202078, 18 h, read-out: MIC
# Description: as §1
# [11] = system: Streptococcus suis CVCC3307; experiment: MIC/MBC, microdilution broth method; format: cell-based; conditions: for MBC: kills 99.9% bacteria, NA = no activity at 1 mg/mL
# Description: as §1
# [12] = system: MRSA ATCC33591; experiment: MIC/MBC, microdilution broth method; format: cell-based, S. aureus; conditions: for MBC: MRSA ATCC33591, kills 99.9% bacteria, NA = no activity at 1 mg/mL
# Description: as §1
# [13] = system: E. coli ATCC25922; experiment: Time-killing assay; format: cell-based; conditions: 2 MIC, CFU counts at 0-24 h; for time to kill bacteria in the logarithmic phase: 1 × 10^6 CFU/mL
# Description: (§2) E. coli ATCC25922 and S. aureus ATCC29213 in the mid-logarithmic phase were diluted into 1 × 10^6 CFU/mL with 10 mM PBS, and incubated with 10 μL Z-d14CFR in a final concentration of 2 MIC. At 0, 4, 8, 12, 16, 20, and 24 h, the mixture was serial diluted and spread onto LB agar plates. After 16 h of cultivation, the CFU number of bacteria was counted to evaluate the ability of peptide to kill bacteria. The bacteria treated with 10 mM PBS as a negative control, and meanwhile incubated with 2 MIC gentamicin or polymyxin B as a positive control.
# [14] = system: S. aureus ATCC29213; experiment: Time-killing assay; format: cell-based; conditions: 2 MIC, CFU counts at 0-24 h; for time to kill bacteria in the logarithmic phase: 1 × 10^6 CFU/mL
# Description: as §2
# [15] = system: E. coli CAU201919; experiment: Murine model of mastitis induced by MDR E. coli; format: in vivo, mice; conditions: Z-d14CFR 25 μg or gentamicin 10 μg via milk duct at 3 h and 15 h, 27 h post-infection
# Excerpt: In this study, the therapeutic effects of Z-d14CFR on MDR bacterial infection in vivo was verified by a murine mastitis model. E. coli CAU201919 was used to establish the mastitis model because it is highly pathogenic compared with other bacteria and is resistant to various antibiotics, such as ampicillin, amoxicillin and cefazolin. In brief, 45 Crl:CD1 female mice at 17–18 days of gestation were purchased from Beijing Vital River Laboratory Animal Technology Co., Ltd. (Beijing, China) and kept in the Laboratory Animal Center of China Agricultural University (Beijing, China). At 72 h post-partum, the mice were randomly divided into 5 groups (n = 9 per group) and the offspring were removed 3 h before of administration. The mice were anesthetized by Zoletil 50 (55 mg/kg body weight, WK001, Virbac, France) and held under the stereoscope in a supine position. Mice in the saline group and Z-d14CFR group were intraductal inoculated with 50 μL normal saline or 50 μL Z-d14CFR (25 μg each teat) alone to the milk duct. Mice in other groups were inoculated with 25 μL (1 × 10^5 CFU) E. coli CAU201919 suspension to the milk duct, and after 3 h of E. coli challenged, mice were treated with 25 μL saline, Z-d14CFR (25 μg) or gentamicin (10 μg), respectively, via milk duct injection. Then the mice were given the same treatment after 15 h of E. coli challenged. After 27 h of E. coli challenged, all mice were euthanized. The mammary gland tissues were collected to carry out bacterial count, histopathological examination and inflammatory factors examination.
# [16] = Retention time of peptide in HPLC (hydrophobicity); format: physicochemical; conditions: used as measure of hydrophobicity (order Z-d14CR > Z-d14CF > Z-d13 > Z-d14CFR > Z-d14C); column and gradient not given
# [17] = Klebsiella pneumoniae CAU202084 (MDR isolate), read-out: MBC
# [18] = Klebsiella pneumoniae, CAU202084, 18 h, read-out: MIC
# [19] = Proteus vulgaris CVCC1971, read-out: MBC
# [20] = Proteus vulgaris, CVCC1971, 18 h, read-out: MIC
# [21] = Streptococcus suis CVCC3307, read-out: MBC
# [22] = Streptococcus suis, CVCC3307, 18 h, read-out: MIC
# [23] = Staphylococcus aureus, 18 h, read-out: MIC
# [24] = Staphylococcus aureus, read-out: MBC
Compound,MIC [1] [µg/mL],MBC [1] [µg/mL],MBC [2] [µg/mL],MIC [2] [µg/mL],MBC [3] [µg/mL],MIC [3] [µg/mL],MBC [4] [µg/mL],MIC [4] [µg/mL],MBC [5] [µg/mL],MIC [5] [µg/mL],"MBC [6, 17] [µg/mL]","MIC [6, 18] [µg/mL]","MBC [7, 19] [µg/mL]","MIC [7, 20] [µg/mL]",MIC [8] [µg/mL],MBC [8] [µg/mL],MBC [9] [µg/mL],MIC [9] [µg/mL],MBC [10] [µg/mL],MIC [10] [µg/mL],further results
"CC1(C)S[C@@H]2[C@H](NC(=O)[C@H](N)c3ccccc3)C(=O)N2[C@H]1C(=O)O [Ampicillin, reference compound]",> 1000,> 1000,16,4,> 1000,> 1000,> 1000,> 1000,32,8,> 1000,> 1000,> 1000,> 1000,4,8,4,2,> 1000,> 1000,"MBC [11, 21]: 2 µg/mL; MIC [11, 22]: 1 µg/mL; MIC [12, 23]: > 1000 µg/mL; MBC [12, 24]: > 1000 µg/mL"
"CNC(C)C1CCC(N)C(OC2C(N)CC(N)C(OC3OCC(C)(O)C(NC)C3O)C2O)O1 (stereo not drawn) [Gentamicin, reference compound]",4,32,4,4,40,40,80,80,4,2,4,1,4,1,2,2,4,4,4,4,"MBC [11, 21]: 8 µg/mL; MIC [11, 22]: 4 µg/mL; MIC [12, 23]: 4 µg/mL; MBC [12, 24]: 16 µg/mL; time to kill bacteria in the logarithmic phase [13]: ≤ 8 h; time to kill bacteria in the plateau [13]: ≤ 12 h; time to kill bacteria in the logarithmic phase [14]: ≤ 8 h; time to kill bacteria in the plateau [14]: ≤ 12 h; bacterial burden in the mammary gland ([15]; Crl:CD1 mice, 1 × 10^5 CFU E. coli CAU201919 intraductal, infected only about 3.71 × 10^9, p < 0.001): 3.13 × 10^8 CFU/g tissue; histopathologic damage of the mammary gland (acinar wall thickening, neutrophils infiltration) [15]: obviously ameliorated; increase in IL-1β mRNA expression in the mammary gland ([15]; p < 0.001): attenuated; increase in TNF-α mRNA expression in the mammary gland ([15]; p < 0.001): attenuated"
"CC(C)[C@@H]1NC(=O)[C@@H]2CSSC[C@H](NC(=O)[C@H](Cc3ccc(O)cc3)NC(=O)[C@@H](NC(=O)CNC(=O)[C@@H](N)CCCNC(=N)N)CSSC[C@@H](C(=O)N[C@@H](CCCNC(=N)N)C(N)=O)NC1=O)C(=O)N[C@@H](CC(N)=O)C(=O)N[C@@H](CO)C(=O)N[C@@H](CCCCN)C(=O)N[C@@H](CO)C(=O)N[C@@H](Cc1ccccc1)C(=O)N2 [Z-d14CF] (H-RGCYCNSKSFCVCR-NH2; disulfide 3-13, 5-11; N-terminus assumed)",,,,,,,,,,,,,,,,,,,,,"MIC ([6]; Klebsiella pneumoniae CAU202084 (MDR isolate), 1 × 10^6 CFU/mL, 18 h at 37 °C, NA = no antimicrobial activity at 1 mg/mL): NA (NA) (No antimicrobial activity at 1 mg/mL); MBC ([6]; Klebsiella pneumoniae CAU202084 (MDR isolate)): NA (NA) (No antimicrobial activity at 1 mg/mL); MIC ([7]; Proteus vulgaris CVCC1971, 1 × 10^6 CFU/mL, 18 h at 37 °C, NA = no antimicrobial activity at 1 mg/mL): NA (NA) (No antimicrobial activity at 1 mg/mL); MBC ([7]; Proteus vulgaris CVCC1971): NA (NA) (No antimicrobial activity at 1 mg/mL); MIC ([11]; Streptococcus suis CVCC3307, 1 × 10^6 CFU/mL, 18 h at 37 °C, NA = no antimicrobial activity at 1 mg/mL): NA (NA) (No antimicrobial activity at 1 mg/mL); MBC ([11]; Streptococcus suis CVCC3307): NA (NA) (No antimicrobial activity at 1 mg/mL); MIC ([12]; MRSA (methicillin-resistant S. aureus) ATCC33591, 1 × 10^6 CFU/mL, 18 h at 37 °C, NA = no antimicrobial activity at 1 mg/mL): NA (NA) (No antimicrobial activity at 1 mg/mL); MBC [12]: NA (NA) (No antimicrobial activity at 1 mg/mL); RT, retention time of peptide in HPLC [16]: 9.538 min"
polymyxin B,,,,,,,,,,,,,,,,,,,,,time to kill bacteria in the logarithmic phase [13]: ≤ 4 h; time to kill bacteria in the plateau [13]: ≤ 12 h; time to kill bacteria in the logarithmic phase [14]: ≤ 4 h; time to kill bacteria in the plateau [14]: ≤ 12 h
